Assay results as given in PubChem BioAssay (NCI).
“And” between values parts separate entries of the source, which are not always exact repeats. Equal entries are not always repeated.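 These data come from cells grown in 96-well plates and exposed to compound for 48 hours at five concentrations. GI50 = concentration required for 50% inhibition of growth. The concentration for full growth arrest is given as TGI.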

Legend:
Assay in all cases: NCI anticancer screen, dose series, 48 h
[1] = tested on: A498 renal
[2] = tested on: DU-145 prostate
[3] = tested on: IGROV1 ovarian
[4] = tested on: NCI/ADR-RES ovarian
[5] = tested on: OVCAR-4 ovarian
[6] = tested on: SK-MEL-5 melanoma
[7] = tested on: SK-OV-3 ovarian
[8] = tested on: SW-620 colon
[9] = tested on: UACC-62 melanoma
[10] = tested on: UACC-257 melanoma

SMILES	GI50 [1]	TGI [1]	GI50 [2]	TGI [2]	GI50 [3]	TGI [3]	GI50 [4]	TGI [4]	GI50 [5]	TGI [5]	GI50 [6]	TGI [6]	GI50 [7]	TGI [7]	GI50 [8]	TGI [8]	GI50 [9]	TGI [9]	TGI [10]	GI50 [10]
CNC(=O)c1cc(Oc2ccc3nc(NC(=O)Nc4ccc(Cl)c(Cl)c4)sc3c2)ccn1	2.93 µM	6.64 µM	2.45 µM	6.29 µM	2.55 µM	6.75 µM	2.3 µM	5.09 µM	2.06 µM	4.03 µM	2.24 µM	5.58 µM	2.24 µM	4.09 µM	8.11 µM	> 100 µM	2.32 µM	7.76 µM		
CCOC(=O)C1CCC/C1=N\N=C(N)N (configuration not stated) (tested in a mixture with another compound)		> 100 µM		> 100 µM		> 100 µM		> 100 µM		> 100 µM		> 100 µM		> 100 µM		> 100 µM		> 100 µM	> 100 µM	
OCCNc1nc(NCCO)nc(Nc2ccc(C3=NN(c4cc(Cl)cc(Cl)c4)C(c4ccc(Cl)cc4)C3)cc2)n1 (configuration not stated)	1.73 µM	3.57 µM	1.67 µM	3.22 µM	2.48 µM	5.68 µM	2.6 µM	7.08 µM	2 µM	5.02 µM	1.81 µM	3.37 µM	2.31 µM	5.15 µM	2.03 µM	4.52 µM	1.72 µM	3.37 µM	3.78 µM	1.95 µM
CC(=O)OCC(=O)[C@@]1(O)[C@H](C)C[C@H]2[C@@H]3C=C(C)C4=Cc5c(cnn5-c5ccc(F)cc5)C[C@]4(C)[C@H]3[C@@H](O)C[C@@]21C	1.48 µM	3.15 µM	2.03 µM	5.17 µM	2.85 µM	12.8 µM	1.9 µM	6.82 µM	2.12 µM	11.5 µM	1.26 µM	2.53 µM	1.29 µM	4.57 µM	1.8 µM	3.41 µM	1.73 µM	3.78 µM	8.54 µM	2.76 µM
C#Cc1cccc(NC(=O)Nc2ccc(NC(=O)CCl)cc2)c1	> 82.5 µM	> 82.5 µM	32.7 µM	> 82.5 µM	12.1 µM	25.5 µM	23.3 µM	70 µM	12.2 µM	28.6 µM	15.1 µM	28.7 µM	15.5 µM	33 µM	14.9 µM	33.2 µM	17.4 µM	61 µM	> 82.5 µM	> 82.5 µM
O=C1N=C2c3c(sc4c3CCCC4)N=CN2C1N=Nc1ccc(Cl)cc1 (configuration not stated)	21.3 µM	47.4 µM	0.291 µM	25.3 µM	49.6 µM	> 100 µM	26.2 µM	> 100 µM	51.9 µM	> 100 µM	3.61 µM	15 µM	47.2 µM	97.6 µM	23.1 µM	> 100 µM	16.7 µM	47.1 µM	> 100 µM	34.1 µM
C[C@]12CC[C@H]3[C@@H](CCC4=CC(=O)CC[C@@H]43)[C@@H]1CC[C@@H]2OC1(O)C(=O)c2ccccc2C1=O		> 100 µM		66.7 µM		> 100 µM		> 100 µM		> 100 µM		35 µM		> 100 µM		> 100 µM		33.6 µM	> 100 µM	
CC(C)(C)Cn1c(N)nc2ccc(-c3[nH]c(C(C)(C)C)nc3-c3ccc(F)cc3)nc21	2.14 µM	18.2 µM	10.6 µM	23.5 µM	2.66 µM	16.4 µM	8.67 µM	33.1 µM	13.3 µM	40.4 µM	11 µM	23 µM	4.36 µM	18.5 µM	13.6 µM	30.1 µM	10.1 µM	23.2 µM	23.9 µM	11.2 µM
CC1(C)CCSC(/C=C/c2ccccc2)=N1		36.4 µM		> 100 µM		37.8 µM		38.2 µM		32.5 µM		28.8 µM		> 100 µM		38.6 µM			27 µM	
COc1cc(N2CCC(N(C)C)CC2)ccc1Nc1ncc(Cl)c(Nc2ccccc2P(C)(C)=O)n1	0.128 µM and 0.086 µM	0.476 µM and 0.53 µM	0.972 µM and 0.545 µM	> 25.2 µM and 3.8 µM	0.687 µM and 0.181 µM	> 100 µM	15.6 µM and > 6.15 µM	98.1 µM and > 10 µM	0.448 µM and 0.615 µM	10.8 µM and > 10 µM	4.34 µM and 2.72 µM	17 µM and > 6.71 µM	0.517 µM and 0.43 µM	2.01 µM and > 4.16 µM	1.33 µM and 0.213 µM	> 26.5 µM and 6.65 µM	3.07 µM and 0.775 µM	20.2 µM and > 5.16 µM	30 µM and > 8.47 µM	4.01 µM and 0.61 µM
Cc1ccc(NC(=O)c2ccnc(C(F)(F)F)c2)cc1-c1cc(OCCO)nc(N2CCOCC2)c1	1.06 µM	3.74 µM	4.09 µM	61.2 µM	1.61 µM	40 µM	2.63 µM	11.5 µM	3.95 µM	21.5 µM	1.5 µM	4.71 µM	6.39 µM	> 100 µM	1.55 µM	63.8 µM	0.315 µM	4.54 µM	12.4 µM	0.6 µM
CCCCCCC(C)CC(CCCCCC)NCCOC(=O)c1ccc([N+](=O)[O-])cc1 (configuration not stated)		34 µM and 34.8 µM		30.1 µM and 25.6 µM		27 µM and 25.1 µM		58.8 µM and 32.1 µM		26.5 µM and 26.9 µM		28.4 µM and 23.4 µM		31.8 µM and 30.4 µM		28.8 µM and 28.5 µM		28.7 µM and 26.6 µM	21.4 µM and 16.8 µM	
COc1cc(C)cc2c1OC(c1ccccc1)CC2=O (configuration not stated)	> 100 µM	> 100 µM	> 100 µM	> 100 µM	> 100 µM	> 100 µM	> 100 µM	> 100 µM	> 100 µM	> 100 µM	> 100 µM	> 100 µM	> 100 µM	> 100 µM	> 100 µM	> 100 µM	> 100 µM	> 100 µM	> 100 µM	> 100 µM
COC(=O)C1=CN(CC2=CC(=O)C(C)=CC2=O)C=C(C(=O)OC)C1c1cccc(OC)c1OC	20.8 µM	55.2 µM	17.4 µM	33.1 µM	17.4 µM	47.3 µM	18.3 µM	38.3 µM	12 µM	> 60.5 µM	15.2 µM	32.6 µM	42.8 µM	> 61.5 µM	19.4 µM	> 70.6 µM	13 µM	30.4 µM	43.5 µM	18.5 µM
